From patent US5242934A, “Method for treatment of neurodegenerative diseases” (R. J. Reynolds Tobacco Company, priority 1992, dated 1993)

Experiments:
[1] = target: high affinity nicotinic receptors; experiment: Inhibition of L-[3H]nicotine binding to mouse brain membrane preparations; parameters: species or system Mice (DBA strain); settings: mouse brain membranes, 2 hr incubation at 4° C., 10 nM L-[3H]nicotine, Ki calculated from IC50 by method of Cheng et al.
Protocol: Mice (DBA strain) were maintained on a 12 hour light/dark cycle and were allowed free access to water and food supplied by Wayne Lab Blox, Madison, Wis. Animals used in the present studies were 60 to 90 days of age and weighed 20 to 25 g. Brain membrane preparations were obtained from pooled brain tissue of both males and females.
Mice were killed by cervical dislocation. Brains were removed and placed on an ice-cold platform. […] Protein was determined by the method of Lowry, et al., J. Biol. Chem., Vol. 193, pp. 265-275 (1951), using bovine serum albumin as the standard.
The binding of L-[^3 H]nicotine was measured using a modification of the method of Romano, et al., Science, Vol. 210, pp. 647-650 (1980) as described previously by Marks, et al., Mol. Pharmacol., Vol. 30, pp. 427-436 (1986). The binding of L-[^3 H]nicotine was measured using a 2 hr. incubation at 4° C. […] Nonspecific binding was determined by inclusion of 10 μM nonradioactive nicotine in the incubations. The inhibition of L-[^3 H]nicotine binding by test compounds was determined by including one of eight different concentrations of the test compound in the incubation. […] Inhibition constants (Ki values) were calculated from the IC50 values using the method of Cheng, et al., Biochem. Pharmacol., Vol. 22, pp. 3099-3108 (1973). […]

[2] = test system: synaptosomes from the striatal area of rat brain; experiment: [3H]-dopamine release from rat striatal synaptosomes; type: biochemical, Sprague-Dawley rats; settings: 0.2 ml of a 20 μM solution of ligand, relative to equal concentration of S(-) nicotine
Protocol: Dopamine release was measured by preparing synaptosomes from the striatal area of rat brain obtained from Sprague-Dawley rats generally according to the procedures set forth by Nagy, et al., J. Neurochem., Vol. 43, pp. 1114-1123 (1984). Striata from 4 rats were homogenized in 2 ml of 0.32M sucrose buffered with 5 mM HEPES (pH 7.5), using a glass-teflon tissue grinder. The homogenate was diluted to 5 ml with additional homogenization solution and centrifuged at 1000×g for 10 min. This procedure was repeated on the new pellet and the resulting supernatant was centrifuged at 12,000×g for 20 min. […] Using this method, 30 to 90 percent of the dopamine was taken up into the synaptosomes, as determined by scintillation counting following filtration through glass fiber filters soaked with 0.5 percent polyethyleneimine. […] After the addition of a 0.2 ml of a 20 μM solution of ligand, the perfusate was collected into scintillation vials at 1 min. intervals and the dopamine released was quantified by scintillation counting. Peaks of radioactivity released above background were summed and the average basal release during that time was subtracted from the total. Release was expressed as a percentage of release obtained with an equal concentration of S(-) nicotine.

## CN1CCCC1c1ccncc1 (centres unmarked) [gamma-nicotine]
[1]
  Ki: 1100 ± 100 nM
[2]
  Dopamine Release (Percent release relative to S(-) nicotine): 45%
